What all share (format): in vivo
Test [1] concerns crabgrass (Digitaria sanguinalis L.). Kind of test: Test Example 1, foliar treatment in upland pots. To be noted: 20th to 22nd day after application, visual, read-out: Growth inhibition rate (%) Crabgrass.
Test [2] has as its system green foxtail (Setaria viridis L.). In words: Test Example 1, foliar treatment in upland pots. To be noted: 20th to 22nd day after application, visual, read-out: Growth inhibition rate (%) Green foxtail. The gist of the method: (§1)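 Sow seeds in upland field soil; grow to set leaf stage (soybean primary leaf–0.3, corn 2.0–3.3, green foxtail 1.5–3.0, rice 1.2–2.5); spray foliage with formulation diluted to 500 L/ha water containing 0.1 vol% spreader at prescribed a.i. rate; score inhibition % at days 20–22.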

In test [3] the test system is corn (Zea mays L.). Kind of test: Test Example 1, foliar treatment in upland pots. The note with it: 20th to 22nd day after application, visual, read-out: Growth inhibition rate (%) Corn. The gist of the method:
as §1

The test system of test [4] is prickly sida (Sida spinosa L.). Kind of test: Test Example 1, foliar treatment in upland pots. To be noted: 20th to 22nd day after application, visual, read-out: Growth inhibition rate (%) Prickly sida.
Test [5] deals with redroot pigweed (Amaranthus retroflexus L.). In words: Test Example 1, foliar treatment in upland pots. The note with it: 20th to 22nd day after application, visual, read-out: Growth inhibition rate (%) Redroot pigweed.
Test [6] concerns velvetleaf (Abutilon theophrasti MEDIC.). Kind of test: Test Example 1, foliar treatment in upland pots. The note with it: 20th to 22nd day after application, visual, read-out: Growth inhibition rate (%) Velvetleaf.
Another test relates to rice (Oryza sativa L.). In words: Test Example 1, foliar treatment in upland pots. The note with it: 20th to 22nd day after application, visual, read-out: Growth inhibition rate (%) Rice. In short, it runs like this:
as §1

The subject of test [7] is soybean (Glycine max Merr.). Kind of test: Test Example 1, foliar treatment in upland pots. The note with it: 20th to 22nd day after application, visual, read-out: Growth inhibition rate (%) Soybean. In short, it runs like this:
as §1

For test [8], the system named is barnyardgrass (Echinochloa crus-galli L.). Kind of test: Test Example 1, foliar treatment in upland pots. The note with it: 20th to 22nd day after application, visual, read-out: Growth inhibition rate (%) Barnyardgrass.
The subject of another test is wheat (Triticum spp.). In words: Test Example 1, foliar treatment in upland pots. To be noted: 20th to 22nd day after application, visual, read-out: Growth inhibition rate (%) Wheat.
In test [9] the test system is velvetleaf (Abutilon theophrasti MEDIC.), guineagrass (Panicum maximum Jacq.), green foxtail (Setaria viridis L.). Kind of test: Test Example 4, foliar treatment, herbicidal effect versus Reference Compounds. The note with it: 3.5 to 15 g/ha, 14th to 28th day after application, test written in present tense. An excerpt:
Upland field soil is put into a 1/1,000,000 hectare pot, and seeds of various plants are sown. When the respective plants reach predetermined leaf stage ((1) velvetleaf (Abutilon theophrasti MEDIC.), (2) guineagrass (Panicum maximum Jacq.), (3) green foxtail (Setaria viridis L.), and (4) corn (Zea mays L.), a wettable powder of compound No. 2-1 of the above-mentioned present invention, an emulsifiable concentrate of the following Reference Compound 1 and a wettable powder of the following Reference Compound 2, prepared in accordance with a conventional preparation method, are weighed so that the active ingredients become the prescribed amounts 3.5 to 15 g/ha, and diluted with water in an amount corresponding to 300 liter per 1 hectare (containing 0.5 vol % of an agricultural spreader (MSO concentrate, manufactured by Cognis Corporation). The spray solutions thus prepared are applied for foliar treatment by a small sprayer.

The subject of test [10] is green foxtail (Setaria viridis L.). Kind of test: Test Example 5, foliar treatment versus Reference Compounds. To be noted: 5.0 to 5.5 leaf stage, 18th day after application, read-out: Growth inhibition rate (%) (18th day after application) Green foxtail. From the text:
(§2) Upland field soil was put into a 1/1,000,000 hectare pot, and seeds of various plants were sown. When the respective plants reached predetermined leaf stage ((1) velvetleaf (Abutilon theophrasti MEDIC.): 3.0 to 3.5 leaf stage, (2) giant foxtail (Setaria faberi Herrm.): 4.0 to 4.5 leaf stage, (3) green foxtail (Setaria viridis L.): 5.0 to 5.5 leaf stage, and (4) corn (Zea mays L.): 4.0 to 4.3 leaf stage, a wettable powder of compound No. 2-1 of the above-mentioned present invention, a wettable powder of the above-mentioned Reference Compound 1 and a wettable powder of the above-mentioned Reference Compound 2, prepared in accordance with a conventional preparation method, were weighed so that the active ingredients became the prescribed amounts, and diluted with water in an amount corresponding to 300 liter per 1 hectare (containing 0.5 vol % of an agricultural spreader (Destiny HC: WINFIELD SOLUTIONS by LLC). The spray solutions thus prepared were applied for foliar treatment by a small sprayer.
(§3) On the 7th to 20th day after application, the state of growth of the respective plants was visually observed, and the herbicidal effect was evaluated by a growth inhibition rate (%) of 0 (equivalent to the non-treated area) to 100% (complete kill).

Test [11] deals with giant foxtail (Setaria faberi Herrm.). The description is as above. The note with it: 4.0 to 4.5 leaf stage, 20th day after application, read-out: Growth inhibition rate (%) (20th day after application) Giant foxtail.
Description: as §2, §3

Test [12] relates to corn (Zea mays L.). The test is described as above. The note with it: 4.0 to 4.3 leaf stage, 7th day after application, read-out: Growth inhibition rate (%) (7th day after application) Corn.
Description: as §2, §3

Test [13] has as its system velvetleaf (Abutilon theophrasti MEDIC.). The test is described as above. To be noted: 3.0 to 3.5 leaf stage, 20th day after application, read-out: Growth inhibition rate (%) (20th day after application) Velvet leaf.
Description: as §2, §3

Structures are written as SMILES.

The values that follow come from patent US8466089B2, “Pyrazole compounds, process for their production and herbicides containing them” (Ishihara Sangyo Kaisha, Ltd., priority 2008, dated 2013).

As a reminder, the inhibition is the change of the read-out against control, counted positive when it falls. `CCn1ncc(C(=O)c2ccc(S(C)(=O)=O)c(OCCOC)c2C)c1OC(C)OC(=O)OC` (stereo not shown) [Compound No. 2-1, 1-(1-Ethyl-4-(3-(2-methoxyethoxy)-2-methyl-4-(methylsulfonyl)benzoyl)-1H-pyrazol-5-yloxy)ethyl methyl carbonate]: the inhibition at 7 g/ha in test [1] amounted to 100%; in test [2] it was 100%; in the test with corn (Zea mays L.) [3], 0%; in [4] it was 60%; in test [5], 90%; in [6] it was 100%. The inhibition at 7 g/ha amounted to 70% in the test on rice (Oryza sativa L.); 95% in test [7]; 95% in [8]; 0% in the test with wheat (Triticum spp.); 70% in test [10]. Also, in [9], the “herbicidal effect as compared to Reference Compounds” value was “superior herbicidal effects”. Further, the values for the inhibition at 3.5 g/ha in test [11] and in [13] were 83% and 80%, respectively. For the same compound, the inhibition at 90 g/ha in the test on corn (Zea mays L.) [12] stood at 0%.
Regarding `COCCOc1c(S(C)(=O)=O)ccc(C(=O)c2cnn(C(C)C)c2O)c1C` [Compound No. 8-1, (5-Hydroxy-1-isopropyl-1H-pyrazol-4-yl)(3-(2-methoxyethoxy)-2-methyl-4-(methylsulfonyl)phenyl)ketone], the inhibition at 7 g/ha in [1] is 95%; in [2] it was 90%; with corn (Zea mays L.) [3], 0%; in [4], 30%; in test [5], 90%; in test [6], 80%. The inhibition at 7 g/ha in the test with rice (Oryza sativa L.) was 10%; in test [7], 40%; in test [8] it was 60%; in the test on wheat (Triticum spp.), 0%.
